Laboratory results as given in ChEMBL document CHEMBL5576126, “Discovery of Novel, Selective, and Nonbasic Agonists for the Kappa-Opioid Receptor Determined by Salvinorin A-Based Virtual Screening” (J Med Chem, 2024).
Calls of active or inactive are those of the source. The calls are words filed in the database; no cut-off is given here.

Experiments:
[1] = target: Kappa-type opioid receptor (Homo sapiens) (UniProt P41145); assay: Potency index, ratio of SalA-VS-07 Ki to test compound Ki for Binding affinity to human Kappa-opioid receptor expressed in CHO cell membrane assessed as inhibition of [3H]-U69593 binding to KOR; type: cell membranes; conditions: filed as agonist
Chain of Kappa-type opioid receptor (Homo sapiens) (P41145 whole entry, the tested form may be a part): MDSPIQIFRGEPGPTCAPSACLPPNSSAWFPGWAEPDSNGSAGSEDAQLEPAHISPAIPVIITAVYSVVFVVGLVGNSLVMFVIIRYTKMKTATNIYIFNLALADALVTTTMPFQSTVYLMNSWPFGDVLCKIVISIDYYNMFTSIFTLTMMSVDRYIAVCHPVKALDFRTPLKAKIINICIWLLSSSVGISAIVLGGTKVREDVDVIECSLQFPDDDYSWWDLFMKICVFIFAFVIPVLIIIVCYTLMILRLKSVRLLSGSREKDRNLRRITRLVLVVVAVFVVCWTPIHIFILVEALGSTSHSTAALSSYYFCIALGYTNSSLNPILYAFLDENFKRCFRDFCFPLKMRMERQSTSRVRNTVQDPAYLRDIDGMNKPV

[2] = target: Delta-type opioid receptor (Homo sapiens) (UniProt P41143); assay: Binding affinity to human Delta-opioid receptor expressed in CHO cell membrane assessed as inhibition of [3H]DPDPE binding to DOR at 10 uM incubated for 60 mins by radioligand binding assay; type: cell membranes
Chain of Delta-type opioid receptor (Homo sapiens) (P41143 whole entry, the tested form may be a part): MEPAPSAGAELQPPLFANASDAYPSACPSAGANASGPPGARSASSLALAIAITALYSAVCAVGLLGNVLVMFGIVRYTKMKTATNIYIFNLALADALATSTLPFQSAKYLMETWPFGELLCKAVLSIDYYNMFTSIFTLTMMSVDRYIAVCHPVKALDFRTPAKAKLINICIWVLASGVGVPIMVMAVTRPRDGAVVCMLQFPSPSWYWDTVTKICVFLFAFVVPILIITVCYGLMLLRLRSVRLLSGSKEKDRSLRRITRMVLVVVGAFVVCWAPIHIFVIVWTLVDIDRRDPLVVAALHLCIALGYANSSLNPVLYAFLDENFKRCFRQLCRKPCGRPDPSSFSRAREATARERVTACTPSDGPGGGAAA

[3] = target: Kappa-type opioid receptor (Homo sapiens) (UniProt P41145); assay: Agonist activity at human Kappa-opioid receptor expressed in human U2OS cells co-expressing enzyme acceptor tagged beta-arrestin2 fusion protein assessed as increase in beta-arrestin2 recruitment at 10 uM incubated for 180 mins by DiscoverX pathHunter express beta-arrestin2 assay; type: functional, cell-based
[4] = target: Kappa-type opioid receptor (Homo sapiens) (UniProt P41145); assay: Binding affinity to human Kappa-opioid receptor expressed in CHO cell membrane assessed as inhibition of [3H]-U69593 binding to KOR incubated for 60 mins by radioligand binding assay; type: cell membranes
[5] = target: Kappa-type opioid receptor (Homo sapiens) (UniProt P41145); assay: Agonist activity at human Kappa-opioid receptor expressed in CHO cell membrane assessed as induction of [35S]GTPgammaS binding by measuring G protein activation incubated for 60 mins by liquid scintillation counting assay; type: functional, cell membranes

| SMILES | Ratio Ki [1] | Activity [2] | Activity [3] | Activity ([4]; filed as agonist) | Activity [5] | Activity ([4]; filed as partial agonist) |
| --- | --- | --- | --- | --- | --- | --- |
| Cc1cc2n(n1)C1(CCN(C(=O)c3cccc(F)c3)CC1)CC(=O)N2CC1CC1 | 6 | inactive | inactive | Dose-Dependent Effect | – | – |
| Cc1cc2n(n1)C1(CCN(C(=O)c3ccncc3)CC1)CC(=O)N2CC1CC1 | – | – | – | – | inactive | – |
| Cc1cc2n(n1)C1(CCN(C(=O)c3ccc(Cl)cc3)CC1)CC(=O)N2CC1CC1 | – | inactive | inactive | – | – | Dose-Dependent Effect |
| CCO[C@@]12Cc3c([nH]c4ccccc34)[C@]3(C)Oc4c(O)ccc5c4[C@@]31CCN(CC1CC1)C2C5 | – | Active | – | – | – | – |
